Source: patent US10005750B2, “Developing potent urate transporter inhibitors: compounds designed for their uricosuric action” (priority 2010, dated 2018)
One block for each molecule: values may come before it.

Tests used:
[1] = target: T1, hURAT1 (Homo sapiens, UniProt Q96S37); assay: [14C]urate uptake inhibition in Xenopus oocytes expressing hURAT1; assay type: cell-based; set-up: expressed in transfected cells; host or cells: Xenopus laevis oocytes injected with capped cRNA; conditions: 60 min; for 14C-urate transport inhibition: test compound at 50 μM; for IC50: 14C-uric acid uptake
T1 sequence (Q96S37 1-553): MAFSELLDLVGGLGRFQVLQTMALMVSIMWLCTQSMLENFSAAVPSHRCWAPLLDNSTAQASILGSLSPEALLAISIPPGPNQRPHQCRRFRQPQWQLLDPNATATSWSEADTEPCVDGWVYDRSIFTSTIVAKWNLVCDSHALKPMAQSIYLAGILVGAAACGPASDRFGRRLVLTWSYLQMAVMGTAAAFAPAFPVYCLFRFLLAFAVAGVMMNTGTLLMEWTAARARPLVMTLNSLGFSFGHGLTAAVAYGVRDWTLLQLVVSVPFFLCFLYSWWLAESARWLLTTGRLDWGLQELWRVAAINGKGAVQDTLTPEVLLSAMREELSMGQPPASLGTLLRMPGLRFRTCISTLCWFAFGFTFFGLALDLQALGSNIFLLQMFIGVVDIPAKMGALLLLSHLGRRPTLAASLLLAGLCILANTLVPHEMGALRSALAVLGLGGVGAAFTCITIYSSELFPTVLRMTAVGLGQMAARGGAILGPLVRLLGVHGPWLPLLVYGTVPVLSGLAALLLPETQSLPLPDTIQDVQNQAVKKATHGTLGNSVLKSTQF
Method: cRNA synthesis and oocyte injection. The hURATv1 (pCMV6-XL5) plasmids were linearized with XbaI and hURAT2 (pCMV-SPORT6) plasmids were linearized with XhoI. The cRNAs were synthesized in vitro with T7 RNA polymerase (for hURATv1) or SP6 RNA polymerase (for hURAT2) using mMessage mMachine® High yield capped RNA transcription kit (Ambion, Austin, Tex., USA). The polyadenylation of cRNA at 3′-end was performed using poly(A) tailing kit (Ambion, Austin, Tex., USA). Female Xenopus frogs (African clawed frogs; 95-120 g) were purchased from Sato Zoushoku (Chiba, Japan) and nurtured in tap water (19±3° C.). […] The oocytes were washed in Ca^2+-free solution and transferred to ND96 solution (96.0 mM NaCl, 2.0 mM KCl, 1.0 mM CaCl2, 1.0 mM MgCl2.6H2O and 5.0 mM HEPES, pH 7.5). Defolliculated Xenopus oocytes (stage 1V and V) were injected with 25 ng of capped cRNA and incubated at 18° C. for 2-3 days in ND96 solution containing gentamicin (50 μg/ml) and 2.5 mM sodium pyruvate.
Inhibition study. After incubation of cRNA-injected oocytes (2-3 days), uptake experiments were performed at room temperature in ND96 solution. […] The uptake was terminated by washing the oocytes with ice-cold uptake solution (5 times @ 1.0 ml each) after 60 min of incubation. The oocytes were solubilized with 5% (w/v) SDS and the radioactivity content determined using liquid scintillation counter (Aloka 3100; Aloka Co., Ltd. Tokyo, Japan). The urate uptake by non-injected (control) oocytes was subtracted from oocytes expressing hURAT1, hURATv1 or hURAT2. The data are presented and reported as the % inhibition. The IC50 data were conducted using different compound concentrations.
We conducted a general screen where ^14C-uric acid ([…]) and test compound (50 μM) were placed in the extracellular fluid. Radioactivity inside the oocyte was analyzed after 60 min. […] The IC50 values were generated using a sigmoidal dose-response (variable slope) relationship.

[2] = test system: hURAT1, hURAT2, and hURATv1; assay: combined % inhibition of urate transport in oocytes expressing hURAT1, hURAT2 or hURATv1; assay type: cell-based, human; conditions: sum over the three transporters
Method: cRNA synthesis and oocyte injection. The hURATv1 (pCMV6-XL5) plasmids were linearized with XbaI and hURAT2 (pCMV-SPORT6) plasmids were linearized with XhoI. The cRNAs were synthesized in vitro with T7 RNA polymerase (for hURATv1) or SP6 RNA polymerase (for hURAT2) using mMessage mMachine® High yield capped RNA transcription kit (Ambion, Austin, Tex., USA). The polyadenylation of cRNA at 3′-end was performed using poly(A) tailing kit (Ambion, Austin, Tex., USA). Female Xenopus frogs (African clawed frogs; 95-120 g) were purchased from Sato Zoushoku (Chiba, Japan) and nurtured in tap water (19±3° C.). Oocytes (1.23±0.10 mg/oocyte) isolated from Xenopus laevis were defolliculated with 1.0 mg/ml collagenase in Ca^2+-free solution (96.0 mM NaCl, 2.0 mM KCl, 1.0 mM MgCl2.6H2O and 5.0 mM HEPES, pH 7.5) at 25+2° C. for 2.0 h. The oocytes were washed in Ca^2+-free solution and transferred to ND96 solution (96.0 mM NaCl, 2.0 mM KCl, 1.0 mM CaCl2, 1.0 mM MgCl2.6H2O and 5.0 mM HEPES, pH 7.5). Defolliculated Xenopus oocytes (stage 1V and V) were injected with 25 ng of capped cRNA and incubated at 18° C. for 2-3 days in ND96 solution containing gentamicin (50 μg/ml) and 2.5 mM sodium pyruvate.
Inhibition study. […] The oocytes were solubilized with 5% (w/v) SDS and the radioactivity content determined using liquid scintillation counter (Aloka 3100; Aloka Co., Ltd. Tokyo, Japan). […]

[3] = oral; 7 (100 mg/kg) versus 4 (300 mg/day) or 5 (1000 mg/day); cited from earlier work
[4] = target: T1, hURAT1; set-up: expressed in transfected cells; host or cells: Xenopus laevis oocytes injected with capped cRNA; conditions: previous results of the applicants' laboratories; cited from earlier work
[5] = target: T1, hURAT1; assay: MDCK-hURAT1 data (Endou and Olkawa, 2009); assay type: cell-based; set-up: expressed in transfected cells; conditions: 8 versus 7, MDCK-hURAT1 data

- 14C-urate transport inhibition [1]: weak inhibition
Structure (SMILES): CCc1oc2ccc(OC)cc2c1C(=O)c1ccc(OC)cc1 [Compound 14, (2-Ethyl-5-methoxybenzofuran-3-yl)(4-methoxyphenyl)methanone]

Structure (SMILES): CCc1cc2cc(OC)cc(C(=O)c3cc(Br)c(O)c(Br)c3)c2o1 [Compound 43]
- IC50 [1]: 1440 nM

- IC50 [1]: > 50000 nM
Structure (SMILES): CCc1oc2cc(O)ccc2c1C(=O)c1ccc(OC)cc1 [Compound 31, (2-Ethyl-6-hydroxybenzofuran-3-yl)(4-methoxyphenyl)methanone]

Structure (SMILES): CCc1cc2cc(O)cc(C(=O)c3cc(Br)c(O)c(Br)c3)c2o1 [Compound 44, (3,5-Dibromo-4-hydroxyphenyl)(2-ethyl-5-hydroxybenzofuran-7-yl)methanone]
- IC50 [1]: 287 nM

Structure (SMILES): CCc1oc2ccccc2c1C(=O)c1cc(Br)c(OC)c(Br)c1 [Compound 85, (3,5-Dibromo-4-methoxyphenyl)(2-ethylbenzofuran-3-yl)methanone]
- combined % inhibition for hURAT1, hURAT2, and hURATv1 [2]: < 160%

Structure (SMILES): CCc1oc2ccccc2c1C(=O)c1cc(Br)c(O)c(Br)c1 [Compound 7, (3,5-Dibromo-4-hydroxyphenyl)(2-ethylbenzofuran-3-yl)methanone]
- physiological effect (lowers urate level) [3]: greater physiological effect
- hURAT1 inhibitor properties [4]: potent

Structure (SMILES): CCc1oc2ccccc2c1C(=O)c1ccc(O)cc1 [Compound 13, (2-Ethylbenzofuran-3-yl)(4-hydroxyphenyl)methanone, reference compound]
- IC50 [1]: 2800 nM

- IC50 [1]: 1100 nM
Structure (SMILES): CCc1oc2cc(O)ccc2c1C(=O)c1ccc(O)cc1 [Compound 32, (2-ethyl-6-hydroxybenzofuran-3-yl)(4-hydroxyphenyl)methanone]

- 14C-urate transport inhibition [1]: weak inhibition
Structure (SMILES): CCc1oc2c(OC)cccc2c1C(=O)c1ccc(OC)cc1 [Compound 19, (2-Ethyl-7-methoxybenzofuran-3-yl)(4-methoxyphenyl)methanone]

- 14C-urate transport inhibition [1]: weak-to-no
Structure (SMILES): CCc1oc2ccccc2c1C(=O)c1ccc(OC)cc1 [Compound 12, (2-Ethylbenzofuran-3-yl)(4-methoxyphenyl)methanone]

Structure (SMILES): CCc1oc2cc(O)ccc2c1C(=O)c1cc(Br)c(O)c(Br)c1 [Compound 8, (3,5-dibromo-4-hydroxyphenyl)(2-ethyl-6-hydroxy-benzofuran-3-yl)methanone]
- fold difference [5]: 5.7 fold
- IC50 [1]: 138 nM
- hURAT1 inhibitor properties [4]: potent

Structure (SMILES): CCc1oc2cc(OC)ccc2c1C(=O)c1ccc(O)cc1 [Compound 30, (2-Ethyl-6-methoxybenzofuran-3-yl)(4-hydroxyphenyl)methanone]
- IC50 [1]: 3900 nM
